Test results from US20230167073A1 (Teijin Pharma Limited, priority 2020, published 2023).

molecular target: T1, Human TRPC6 (Homo sapiens, UniProt Q9Y210); assay: Evaluation of TRPC6 channel inhibitory activity (1), FLIPR Calcium 5 Assay Kit, OAG stimulation (Compound Nos. 1-1293); type: cell-based; conditions: Human TRPC6 stably-expressing cells, OAG 30 μM, FLIPR Calcium 5 Assay Kit; read-out: Inhibitory activity (pIC50 class) (converted)
T1 construct: expressed in transfected cells
T1 sequence (Q9Y210 1-931): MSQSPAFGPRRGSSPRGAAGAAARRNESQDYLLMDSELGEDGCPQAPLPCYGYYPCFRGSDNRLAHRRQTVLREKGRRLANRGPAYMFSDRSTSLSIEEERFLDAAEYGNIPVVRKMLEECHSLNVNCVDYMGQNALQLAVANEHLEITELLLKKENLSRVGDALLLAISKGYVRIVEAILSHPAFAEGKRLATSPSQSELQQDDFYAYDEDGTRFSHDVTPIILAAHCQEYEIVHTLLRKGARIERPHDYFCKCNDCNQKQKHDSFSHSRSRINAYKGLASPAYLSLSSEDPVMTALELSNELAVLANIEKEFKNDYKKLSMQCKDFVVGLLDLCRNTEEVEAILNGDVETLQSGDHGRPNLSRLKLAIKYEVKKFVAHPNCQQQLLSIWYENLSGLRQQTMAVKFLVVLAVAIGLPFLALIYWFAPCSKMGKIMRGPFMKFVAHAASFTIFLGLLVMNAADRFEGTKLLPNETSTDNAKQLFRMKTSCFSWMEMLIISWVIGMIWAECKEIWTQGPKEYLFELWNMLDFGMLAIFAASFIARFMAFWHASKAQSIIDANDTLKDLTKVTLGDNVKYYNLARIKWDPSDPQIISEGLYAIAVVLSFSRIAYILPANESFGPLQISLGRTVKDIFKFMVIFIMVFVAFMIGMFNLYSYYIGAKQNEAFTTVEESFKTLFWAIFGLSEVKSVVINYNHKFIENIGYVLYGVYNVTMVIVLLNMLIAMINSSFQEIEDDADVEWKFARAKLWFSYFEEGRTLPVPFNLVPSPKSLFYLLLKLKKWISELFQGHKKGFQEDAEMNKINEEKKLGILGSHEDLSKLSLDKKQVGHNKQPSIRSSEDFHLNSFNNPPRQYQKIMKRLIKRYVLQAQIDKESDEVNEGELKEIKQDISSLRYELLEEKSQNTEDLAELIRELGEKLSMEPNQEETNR
How it was run: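 Stable human TRPC6 line; fluorescent Ca2+ dye loading, then 20 min compound exposure before 30 μM OAG trigger. Peak-minus-baseline signal converted to % inhibition against untreated and unstimulated wells; potency given as pIC50 band.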

Structure (SMILES) | IC50 [nM]
Cc1nn(-c2ccccn2)cc1Oc1cc(C#N)ccc1-c1ncc(CN)cn1 [compound 833, 4-[5-(aminomethyl)pyrimidin-2-yl]-3-(3-methyl-1-pyridin-2-ylpyrazol-4 yl)oxybenzonitrile] | < 10
COCCCCN(C)c1cc(Oc2cc(C#N)ccc2-c2ncc(CCN)cn2)n(C)n1 [compound 838, 4-[5-(2-aminoethyl)pyrimidin-2-yl]-3-[5-[4-methoxybutyl(methyl)amino]-2-methylpyrazol-3-yl]oxybenzonitrile] | 10 to 1000
CN(C)C(=O)CNC(C)(C)Cc1ccc(-c2ccc(C#N)cc2Oc2cc(-c3ccccn3)nn2C)nc1 [compound 839, 2-[[1-[6-[4-cyano-2-(2-methyl-5-pyridin-2-ylpyrazol-3-yl)oxyphenyl]pyridin-3-yl]-2-methylpropan-2-yl]amino]-N,N-dimethylacetamide] | > 1000
Cc1cc(Oc2cc(C#N)ccc2-c2ccc(CC(C)(C)NCC(=O)N(C)C)cn2)cc(N2CCOCC2)n1 [compound 840, 2-[[1-[6-[4-cyano-2-(2-methyl-6-morpholin-4-ylpyridin-4-yl)oxyphenyl]pyridin-3-yl]-2-methylpropan-2-yl]amino]-N,N-dimethylacetamide] | > 1000
Cc1cc(Oc2cc(C#N)ccc2-c2ncc(CNCC(N)=O)cn2)cc(-c2ccccn2)n1 [compound 841, 2-[[2-[4-cyano-2-(2-methyl-6-pyridin-2-ylpyridin-4-yl)oxyphenyl]pyrimidin-5-yl]methylamino]acetamide] | > 1000
COCCOc1cc(Oc2cc(C#N)ccc2-c2ncc(CN)cn2)nc(C)n1 [compound 843, 4-[5-(aminomethyl)pyrimidin-2-yl]-3-[6-(2-methoxyethoxy)-2-methylpyrimidin-4-yl]oxybenzonitrile] | > 1000
Cc1nc(Oc2cc(C#N)ccc2-c2ncc(CN)cn2)cc(O[C@@H]2CCOC2)n1 [compound 844, 4-[5-(aminomethyl)pyrimidin-2-yl]-3-[2-methyl-6-[(3R)-oxolan-3-yl]oxypyrimidin-4-yl]oxybenzonitrile] | > 1000
Cc1nc(Oc2cc(C#N)ccc2-c2ncc(CN)cn2)cc(O[C@H]2CCOC2)n1 [compound 845, 4-[5-(aminomethyl)pyrimidin-2-yl]-3-[2-methyl-6-[(3S)-oxolan-3-yl]oxypyrimidin-4-yl]oxybenzonitrile] | > 1000
Cc1nc(OCC(C)C)cc(Oc2cc(C#N)ccc2-c2ncc(CN)cn2)n1 [compound 846, 4-[5-(aminomethyl)pyrimidin-2-yl]-3-[2-methyl-6-(2-methylpropoxy)pyrimidin-4-yl]oxybenzonitrile] | 10 to 1000
Cc1nc(OCC2CC2(F)F)cc(Oc2cc(C#N)ccc2-c2ncc(CN)cn2)n1 (stereo not drawn) [compound 847, 4-[5-(aminomethyl)pyrimidin-2-yl]-3-[6-[(2,2-difluorocyclopropyl)methoxy]-2-methylpyrimidin-4-yl]oxybenzonitrile] | > 1000
Cc1nc(OCC(C)C)cc(Oc2cc(C#N)ccc2-c2ncc(CCN)cn2)n1 [compound 849, 4-[5-(2-aminoethyl)pyrimidin-2-yl]-3-[2-methyl-6-(2-methylpropoxy)pyrimidin-4-yl]oxybenzonitrile] | < 10
Cc1nc(Oc2cc(C#N)ccc2-c2ncc(CN)cn2)cc(N2C=NCCC2)n1 [compound 850, 4-[5-(aminomethyl)pyrimidin-2-yl]-3-[6-(5,6-dihydro-4H-pyrimidin-1-yl)-2-methylpyrimidin-4-yl]oxybenzonitrile] | < 10
Cc1nc(Oc2cc(C#N)ccc2-c2ncc(CN)cn2)cc(N2CCCC2=O)n1 [compound 851, 4-[5-(aminomethyl)pyrimidin-2-yl]-3-[2-methyl-6-(2-oxopyrrolidin-1-yl)pyrimidin-4-yl]oxybenzonitrile] | > 1000
Cc1nc(Oc2cc(C#N)ccc2-c2ncc(CN)cn2)cc(N(C)C2COC2)n1 [compound 852, 4-[5-(aminomethyl)pyrimidin-2-yl]-3-[2-methyl-6-[methyl(oxetan-3-yl)amino]pyrimidin-4-yl]oxybenzonitrile] | > 1000
Cc1nc(Oc2cc(C#N)ccc2-c2ncc(CCN)cn2)cc(N2CCC2=O)n1 [compound 855, 4-[5-(2-aminoethyl)pyrimidin-2-yl]-3-[2-methyl-6-(2-oxoazetidin-1-yl)pyrimidin-4-yl]oxybenzonitrile] | 10 to 1000
Cc1nc(Oc2cc(C#N)ccc2-c2ncc(CCN)cn2)cc(N(C)C(C)C)n1 [compound 857, 4-[5-(2-aminoethyl)pyrimidin-2-yl]-3-[2-methyl-6-[methyl(propan-2-yl)amino]pyrimidin-4-yl]oxybenzonitrile] | < 10
Cc1nc(Oc2cc(C#N)ccc2-c2ncc(CCN)cn2)cc(N2CCC[C@H]2C)n1 [compound 859, 4-[5-(2-aminoethyl)pyrimidin-2-yl]-3-[2-methyl-6-[(2R)-2-methylpyrrolidin-1-yl]pyrimidin-4-yl]oxybenzonitrile] | < 10
Cc1nc(Oc2cc(C#N)ccc2-c2ncc(CCN)cn2)cc(N2CCC[C@@H]2C)n1 [compound 860, 4-[5-(2-aminoethyl)pyrimidin-2-yl]-3-[2-methyl-6-[(2S)-2-methylpyrrolidin-1-yl]pyrimidin-4-yl]oxybenzonitrile] | < 10
Cc1nc(Oc2cc(C#N)ccc2-c2ncc(CCN)cn2)cc(N(C)CC2CC2)n1 [compound 861, 4-[5-(2-aminoethyl)pyrimidin-2-yl]-3-[6-[cyclopropylmethyl(methyl)amino]-2-methylpyrimidin-4-yl]oxybenzonitrile] | < 10

Next, values leading:

IC50 [nM] | Structure (SMILES)
< 10 | Cc1nn(-c2ccccn2)cc1Oc1cc(C#N)ccc1-c1ncc(CCN)cn1 [compound 832, 4-[5-(2-aminoethyl)pyrimidin-2-yl]-3-(3-methyl-1-pyridin-2-ylpyrazol-4-yl)oxybenzonitrile]
< 10 | Cc1nn(CC(F)(F)F)cc1Oc1cc(C#N)ccc1-c1ncc(CCN)cn1 [compound 834, 4-[5-(2-aminoethyl)pyrimidin-2-yl]-3-[3-methyl-1-(2,2,2-trifluoroethyl)pyrazol-4-yl]oxybenzonitrile]
< 10 | Cc1nn(CC(F)(F)F)cc1Oc1cc(C#N)ccc1-c1ncc(CN)cn1 [compound 835, 4-[5-(aminomethyl)pyrimidin-2-yl]-3-[3-methyl-1-(2,2,2-trifluoroethyl)pyrazol-4-yl]oxybenzonitrile]
10 to 1000 | Cc1c(Oc2cc(C#N)ccc2-c2ncc(CCN)cn2)cnn1CC(F)(F)F [compound 836, 4-[5-(2-aminoethyl)pyrimidin-2-yl]-3-[5-methyl-1-(2,2,2-trifluoroethyl)pyrazol-4-yl]oxybenzonitrile]
10 to 1000 | Cc1c(Oc2cc(C#N)ccc2-c2ncc(CN)cn2)cnn1CC(F)(F)F [compound 837, 4-[5-(aminomethyl)pyrimidin-2-yl]-3-[5-methyl-1-(2,2,2-trifluoroethyl)pyrazol-4-yl]oxybenzonitrile]
< 10 | CCN(c1cc(Oc2cc(C#N)ccc2-c2ncc(CCN)cn2)n(C)n1)C(C)C [compound 842, 4-[5-(2-aminoethyl)pyrimidin-2-yl]-3-[5-[ethyl(propan-2-yl)amino]-2-methylpyrazol-3-yl]oxybenzonitrile]
< 10 | Cc1nc(Oc2cc(C#N)ccc2-c2ncc(CCN)cn2)cc(OC(C)C)n1 [compound 848, 4-[5-(2-aminoethyl)pyrimidin-2-yl]-3-(2-methyl-6-propan-2-yloxypyrimidin-4-yl)oxybenzonitrile]
10 to 1000 | Cc1nc(Oc2cc(C#N)ccc2-c2ncc(CCN)cn2)cc(N2CCC2)n1 [compound 853, 4-[5-(2-aminoethyl)pyrimidin-2-yl]-3-[6-(azetidin-1-yl)-2-methylpyrimidin-4-yl]oxybenzonitrile]
< 10 | CCN(C)c1cc(Oc2cc(C#N)ccc2-c2ncc(CCN)cn2)nc(C)n1 [compound 854, 4-[5-(2-aminoethyl)pyrimidin-2-yl]-3-[6-[ethyl(methyl)amino]-2-methylpyrimidin-4-yl]oxybenzonitrile]
< 10 | CCN(CC)c1cc(Oc2cc(C#N)ccc2-c2ncc(CCN)cn2)nc(C)n1 [compound 856, 4-[5-(2-aminoethyl)pyrimidin-2-yl]-3-[6-(diethylamino)-2-methylpyrimidin-4-yl]oxybenzonitrile]
10 to 1000 | Cc1nc(Oc2cc(C#N)ccc2-c2ncc(CCN)cn2)cc(N2CC(F)C2)n1 [compound 858, 4-[5-(2-aminoethyl)pyrimidin-2-yl]-3-[6-(3-fluoroazetidin-1-yl)-2-methylpyrimidin-4-yl]oxybenzonitrile]
